In assay [1] the test system is DUX4 mRNA. The assay is described as follows: DUX4 mRNA levels by RT-qPCR in SuSa testicular teratocarcinoma cells. Particulars: varying concentrations, 20 hours, vs DMSO vehicle set to one. It counts as cell-based, human. The method, then: (§1) FIG. 13A-C. CDK7 inhibitor THZ1 reduces DUX4 expression in FSHD cells and cancer cells. (A) Differentiating MB200 FSHD2 patient-derived muscle cells, (B) SuSa testicular teratocarcinoma cells, or (C) KLE endometrial adenocarcinoma cells were treated with vehicle (−, DMSO) or varying concentrations of THZ1, as indicated, for 24 hours (A) or 20 hours (B-C) and cultures analyzed for DUX4 mRNA levels by RT-qPCR. […] Data are represented as relative expression (means, with error bars indicating standard deviation across three biological replicates) with expression in the absence of inhibitor set to one. FSHD muscle cells utilize DUX4 exon 3, while SuSa cells and KLE cells use DUX4 exon 3b.
(§2) Total RNA was extracted from whole cells using the NucleoSpin RNA kit (Machery-Nagel) according to the manufacturer's instructions. Isolated RNA was treated with DNase I (Thermo Fisher Scientific), heat inactivated, and reverse transcribed into cDNA using SuperScript III (Thermo Fisher Scientific) and oligo(dT) primers (Invitrogen) following the manufacturer's protocol. Quantitative PCR was carried out on a QuantStudio 7 Flex (Applied Biosystems) using primers specific for each mRNA and iTaq SYBR Green Supermix (Bio-Rad Laboratories, Inc.). […]
(§3) Next, the cells were analyzed for DUX4 mRNA levels by RT-qPCR.
A general note: Real-time PCR tracks product formation cycle by cycle.

Assay [2] has as its system DUX4 mRNA. Kind of assay: DUX4 mRNA levels by RT-qPCR in KLE endometrial adenocarcinoma cells. It counts as cell-based, human. Particulars: varying concentrations, 20 hours, vs DMSO vehicle set to one. The method, then:
as §1, §2, §3

The test system of assay [3] is DUX4 mRNA. The assay is described as follows: DUX4 mRNA levels by RT-qPCR in differentiating MB200 FSHD2 patient-derived muscle cells. It counts as cell-based, human. Particulars: varying concentrations, 24 hours, vs DMSO vehicle set to one. As to the method: as §1, §2, §3
Assay [4] addresses p38α (Homo sapiens, UniProt Q16539). Particulars: fold selective over p38β; cited from earlier work.

SMILES strings stand for the structures.

p38α, sequence (Q16539 whole entry): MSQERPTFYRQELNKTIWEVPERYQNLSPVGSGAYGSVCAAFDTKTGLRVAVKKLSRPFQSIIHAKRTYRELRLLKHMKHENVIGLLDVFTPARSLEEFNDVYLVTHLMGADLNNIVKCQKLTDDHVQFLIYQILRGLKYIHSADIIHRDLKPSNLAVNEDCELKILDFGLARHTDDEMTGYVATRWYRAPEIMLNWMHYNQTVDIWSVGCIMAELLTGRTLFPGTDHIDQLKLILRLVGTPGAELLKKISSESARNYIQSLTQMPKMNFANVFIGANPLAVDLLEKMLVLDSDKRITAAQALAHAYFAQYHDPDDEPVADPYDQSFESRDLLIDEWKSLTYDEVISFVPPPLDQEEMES

Turning to `CN(C)C/C=C/C(=O)Nc1ccc(C(=O)Nc2cccc(Nc3ncc(Cl)c(-c4c[nH]c5ccccc45)n3)c2)cc1` [THZ1], the “DUX4 mRNA levels (relative expression)” value in assay [1], in assay [2] and in assay [3] was “inhibits DUX4 expression” in each case.
As for `NC(=O)c1ccc(N(C(N)=O)c2c(F)cccc2F)nc1-c1ccc(F)cc1F` [VX-702], the “Selectivity for p38α over p38β” value in assay [4] is “p38α14X selective over p38β”.
Take `O=c1ncn2nc(Sc3ccc(F)cc3F)ccc2c1-c1c(Cl)cccc1Cl` [VX-745]: in assay [4], the “Selectivity for p38α over p38β” value was “p38α22X selective over p38β”.

The values above are taken from patent publication US20220202845A1, “METHODS AND COMPOSITIONS FOR TREATING CANCER” (Fred Hutchinson Cancer Research Center, priority 2018, published 2022).
